In patent US8802597B2, “Herbicidal pyrimidines” (E I du Pont de Nemours and Company, priority 2003, dated 2014):

Assays:
Format in all cases: in vivo
[1] = tested on: yellow nutsedge (Cyperus esculentus); assay: Test C pre/postemergence; details: for Nutsedge, Yellow plant response rating: scale 0 to 100 (0 no effect, 100 complete control)
Summary of the method: (§1)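 Test compounds, formulated in a non-phytotoxic solvent mix with surfactant, were applied to freshly planted seeds and, at the same time, to emerged plants at 1- to 4-leaf stage (2 to 18 cm). After 12 to 14 days in the greenhouse, response was scored visually versus controls, 0 = no effect, 100 = complete control.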

[2] = tested on: woolly cupgrass (Eriochloa villosa); assay: Test C pre/postemergence; details: for Cupgrass, Woolly plant response rating: scale 0 to 100 (0 no effect, 100 complete control)
Summary of the method: as §1

[3] = tested on: bermudagrass (Cynodon dactylon); assay: Test C pre/postemergence; details: for Bermudagrass plant response rating: scale 0 to 100 (0 no effect, 100 complete control)
Summary of the method: as §1

[4] = tested on: velvetleaf (Abutilon theophrasti); assay: Test C pre/postemergence; details: for Velvetleaf plant response rating: scale 0 to 100 (0 no effect, 100 complete control)
Summary of the method: as §1

[5] = tested on: pigweed (Amaranthus retroflexus); assay: Test C pre/postemergence; details: for Pigweed plant response rating: scale 0 to 100 (0 no effect, 100 complete control)
Summary of the method: as §1

[6] = tested on: common ragweed (Ambrosia elatior); assay: Test C pre/postemergence; details: for Ragweed plant response rating: scale 0 to 100 (0 no effect, 100 complete control)
Summary of the method: as §1

[7] = tested on: goosegrass (Eleusine indica); assay: Test C pre/postemergence; details: for Goosegrass plant response rating: scale 0 to 100 (0 no effect, 100 complete control)
Summary of the method: as §1

[8] = tested on: chickweed (Stellaria media); assay: Test C postemergence; details: for Chickweed plant response rating: scale 0 to 100 (0 no effect, 100 complete control); for Plant response rating, Chickweed: scale 0 to 100
Summary of the method: as §1

[9] = Postemergence, 250 g ai/ha, scale 0 to 100
[10] = Postemergence, 500 g ai/ha, scale 0 to 100
[11] = Preemergence, 16 g ai/ha, scale 0 to 100, 0 no effect, 100 complete control
[12] = Preemergence, 31 g ai/ha, scale 0 to 100, 0 no effect, 100 complete control
[13] = Preemergence, 62 g ai/ha, scale 0 to 100, 0 no effect, 100 complete control
[14] = Preemergence, 125 g ai/ha, scale 0 to 100

For `CCOC(=O)c1nc(-c2ccc(Cl)cc2)nc(N)c1Br` [Compound 37], the “Nutsedge, Yellow plant response rating” value ([1]; Postemergence, 62 g ai/ha) was 0, the “Nutsedge, Yellow plant response rating” value ([1]; Postemergence, 125 g ai/ha) was 0 and the “Plant response rating, Nutsedge, Yellow” value [1, 9] was 0. For the same compound, the “Plant response rating, Nutsedge, Yellow” value [1, 10] was 20, the “Cupgrass, Woolly plant response rating” value ([2]; Postemergence, 62 g ai/ha) was 0 and the “Cupgrass, Woolly plant response rating” value ([2]; Postemergence, 125 g ai/ha) was 0. For the same compound, the “Plant response rating, Cupgrass, Woolly” value [2, 9] was 0, the “Plant response rating, Cupgrass, Woolly” value [2, 10] was 45 and the “Bermudagrass plant response rating” value ([3]; Postemergence, 62 g ai/ha) was 0. For the same compound, the “Bermudagrass plant response rating” value ([3]; Postemergence, 125 g ai/ha) was 0, the “Plant response rating, Bermudagrass” value [3, 9] was 0 and the “Plant response rating, Bermudagrass” value [3, 10] was 20. For the same compound, the “Velvetleaf plant response rating” value ([4]; Postemergence, 62 g ai/ha) was 0, the “Velvetleaf plant response rating” value ([4]; Postemergence, 125 g ai/ha) was 85 and the “Plant response rating, Velvetleaf” value [4, 9] was 90. For the same compound, the “Plant response rating, Velvetleaf” value [4, 10] was 95, the “Pigweed plant response rating” value ([5]; Postemergence, 62 g ai/ha) was 0 and the “Pigweed plant response rating” value ([5]; Postemergence, 125 g ai/ha) was 95. The “Plant response rating, Pigweed” value [5, 9] was 100, the “Plant response rating, Pigweed” value [5, 10] was 100 and the “Ragweed plant response rating” value ([6]; Postemergence, 62 g ai/ha) was 0. The “Ragweed plant response rating” value ([6]; Postemergence, 125 g ai/ha) was 80, the “Plant response rating, Ragweed” value [6, 9] was 90 and the “Plant response rating, Ragweed” value [6, 10] was 95. For the same compound, the “Goosegrass plant response rating” value ([7]; Postemergence, 62 g ai/ha) was 0, the “Goosegrass plant response rating” value ([7]; Postemergence, 125 g ai/ha) was 0 and the “Plant response rating, Goosegrass” value [7, 9] was 0. The “Plant response rating, Goosegrass” value [7, 10] was 0, the “Chickweed plant response rating” value ([8]; 62 g ai/ha) was 0 and the “Chickweed plant response rating” value ([8]; 125 g ai/ha) was 0. The “Plant response rating, Chickweed” value ([8]; 250 g ai/ha) was 0 and the “Plant response rating, Chickweed” value ([8]; 500 g ai/ha) was 0.

In the case of `COCc1nc(C2CC2)nc(N)c1Br` [Compound 11], the “Plant response rating (scale of 0 to 100), Nutsedge, Yellow” value ([1]; Postemergence, 16 g ai/ha) is reported as 0, the “Plant response rating (scale of 0 to 100), Nutsedge, Yellow” value ([1]; Postemergence, 31 g ai/ha) is reported as 0 and the “Nutsedge, Yellow plant response rating” value ([1]; Postemergence, 62 g ai/ha) is reported as 0. For the same compound, the “Nutsedge, Yellow plant response rating” value ([1]; Postemergence, 125 g ai/ha) was 0, the “Plant response rating, Nutsedge, Yellow” value [1, 11] was 0 and the “Plant response rating, Nutsedge, Yellow” value [1, 12] was 0. The “Plant response rating, Nutsedge, Yellow” value [1, 13] was 0, the “Plant response rating (scale of 0 to 100), Cupgrass, Woolly” value ([2]; Postemergence, 16 g ai/ha) was 0 and the “Plant response rating (scale of 0 to 100), Cupgrass, Woolly” value ([2]; Postemergence, 31 g ai/ha) was 0. For the same compound, the “Cupgrass, Woolly plant response rating” value ([2]; Postemergence, 62 g ai/ha) was 0, the “Cupgrass, Woolly plant response rating” value ([2]; Postemergence, 125 g ai/ha) was 0 and the “Plant response rating, Cupgrass, Woolly” value [2, 11] was 0. For the same compound, the “Plant response rating, Cupgrass, Woolly” value [2, 12] was 0, the “Plant response rating, Cupgrass, Woolly” value [2, 13] was 0 and the “Plant response rating, Cupgrass, Woolly” value [2, 14] was 0. For the same compound, the “Plant response rating (scale of 0 to 100), Bermudagrass” value ([3]; Postemergence, 16 g ai/ha) was 0, the “Plant response rating (scale of 0 to 100), Bermudagrass” value ([3]; Postemergence, 31 g ai/ha) was 0 and the “Bermudagrass plant response rating” value ([3]; Postemergence, 62 g ai/ha) was 0. For the same compound, the “Plant response rating, Bermudagrass” value ([3]; Postemergence, 125 g ai/ha, scale 0 to 100) was 0, the “Plant response rating, Bermudagrass” value [3, 11] was 0 and the “Plant response rating, Bermudagrass” value [3, 12] was 0. The “Plant response rating, Bermudagrass” value [3, 13] was 0, the “Plant response rating, Bermudagrass” value [3, 14] was 0 and the “Plant response rating (scale of 0 to 100), Velvetleaf” value ([4]; Postemergence, 16 g ai/ha) was 20. For the same compound, the “Plant response rating (scale of 0 to 100), Velvetleaf” value ([4]; Postemergence, 31 g ai/ha) was 50, the “Velvetleaf plant response rating” value ([4]; Postemergence, 62 g ai/ha) was 60 and the “Velvetleaf plant response rating” value ([4]; Postemergence, 125 g ai/ha) was 75. The “Plant response rating, Velvetleaf” value [4, 11] was 0, the “Plant response rating, Velvetleaf” value [4, 12] was 0 and the “Plant response rating, Velvetleaf” value [4, 13] was 0. The “Plant response rating, Velvetleaf” value [4, 14] was 0, the “Plant response rating (scale of 0 to 100), Pigweed” value ([5]; Postemergence, 16 g ai/ha) was 60 and the “Plant response rating (scale of 0 to 100), Pigweed” value ([5]; Postemergence, 31 g ai/ha) was 70. For the same compound, the “Pigweed plant response rating” value ([5]; Postemergence, 62 g ai/ha) was 80, the “Pigweed plant response rating” value ([5]; Postemergence, 125 g ai/ha) was 90 and the “Plant response rating, Pigweed” value [5, 11] was 0. For the same compound, the “Plant response rating, Pigweed” value [5, 12] was 0, the “Plant response rating, Pigweed” value [5, 13] was 65 and the “Plant response rating, Pigweed” value [5, 14] was 90. For the same compound, the “Plant response rating (scale of 0 to 100), Ragweed” value ([6]; Postemergence, 16 g ai/ha) was 15, the “Plant response rating (scale of 0 to 100), Ragweed” value ([6]; Postemergence, 31 g ai/ha) was 45 and the “Ragweed plant response rating” value ([6]; Postemergence, 62 g ai/ha) was 65. The “Ragweed plant response rating” value ([6]; Postemergence, 125 g ai/ha) was 75, the “Plant response rating, Ragweed” value [6, 11] was 0 and the “Plant response rating, Ragweed” value [6, 12] was 0. The “Plant response rating, Ragweed” value [6, 13] was 20, the “Plant response rating, Ragweed” value [6, 14] was 45 and the “Plant response rating (scale of 0 to 100), Goosegrass” value ([7]; Postemergence, 16 g ai/ha) was 0. For the same compound, the “Plant response rating (scale of 0 to 100), Goosegrass” value ([7]; Postemergence, 31 g ai/ha) was 0, the “Goosegrass plant response rating” value ([7]; Postemergence, 62 g ai/ha) was 0 and the “Goosegrass plant response rating” value ([7]; Postemergence, 125 g ai/ha) was 0. For the same compound, the “Plant response rating, Goosegrass” value [7, 11] was 0, the “Plant response rating, Goosegrass” value [7, 12] was 0 and the “Plant response rating, Goosegrass” value [7, 13] was 0. The “Plant response rating, Goosegrass” value [7, 14] was 0, the “Plant response rating (scale of 0 to 100), Chickweed” value ([8]; 16 g ai/ha) was 0 and the “Plant response rating (scale of 0 to 100), Chickweed” value ([8]; 31 g ai/ha) was 0. The “Chickweed plant response rating” value ([8]; 62 g ai/ha) was 0 and the “Plant response rating, Chickweed” value ([8]; 125 g ai/ha) was 0.
